Results as given in patent publication US8426202B2, “Cell culture medium” (Cellca GmbH, priority 2005, dated 2013).

Experiments:
[1] = test system: CHO cell line that expresses an antibody; assay: Fed-batch experiment with the substances according to the invention (Example 2, Table 2); format: cell-based, Chinese hamster; parameters: Viabil.: concentration or dose not given beside the values
Excerpt: (§1) Feed took place at regular intervals.

[2] = test system: CHO cell line that expresses an antibody; assay: Batch experiment with the substances according to the invention (Example 1); format: cell-based, Chinese hamster; conditions: batch mode, substance 0.5-1 g/l, basal medium glucose 4.7 g/l, glutamine […]
Experimental: Cells were stored in the gas phase of liquid nitrogen. One to two ampoules were thawed in nutrient medium preheated to 37° C. and transferred to spinner bottles, shaking flasks or T-bottles. In the first few days of cultivation the medium was changed, depending on the clone.
Depending on the clone, cells were split either every second day or every third day or after two and three days alternately into new medium, i.e. a portion of the cell suspension was removed from culture and a smaller portion of the cell suspension was reused as inoculum for the next culture. This inoculum was made up with fresh prewarmed nutrient medium. Cells were incubated at 37° C. in an incubator with a CO2 atmosphere. An alternative for incubating cells was cultivation in an incubation chamber at 37° C., in this way cells were held in culture for several passages. A passage means a cultivation time of two to three days. At various points of time, cell suspension was taken from strain maintenance and used as inoculum for experiments. The experiments were carried out in various cultivation systems, for example in spinner bottles, T-bottles, shaking flasks, culture tubes or in controlled bioreactors.
as §1

CC(=O)C(=O)[O-].[Na+] [Sodium pyruvate]
Total Cell Density TCD ([1]; day 0, fed-batch): 1.5 E5/ml
Viabil. ([1]; day 0, fed-batch): 91%
Viable Cell Density (VCD) ([1]; day 0, fed-batch): 1.37 E5/ml
Total Cell Density TCD ([1]; day 2, fed-batch): 3.2 E5/ml
Viabil. ([1]; day 2, fed-batch): 97%
Viable Cell Density (VCD) ([1]; day 2, fed-batch): 3.1 E5/ml
Total Cell Density TCD ([1]; day 5, fed-batch): 13.7 E5/ml
Viabil. ([1]; day 5, fed-batch): 99%
Viable Cell Density (VCD) ([1]; day 5, fed-batch): 13.5 E5/ml
Total Cell Density TCD ([1]; day 8, fed-batch): 46 E5/ml
Viabil. ([1]; day 8, fed-batch): 90%
Viable Cell Density (VCD) ([1]; day 8, fed-batch): 41.5 E5/ml
Gln ([2]; day 0): 1.53 mM
Glucose ([2]; day 0): 4.69 g/L
Lactate ([2]; day 0): 0 g/L
NH4 ([2]; day 0): 1.22 mM
Specific Glutamin consumption (Gln/VCD) ([2]; day 0): 1.49
Specific ammonia production (NH4/VCD) ([2]; day 0): 1.18
Specific glucose consumption (Gluc/VCD) ([2]; day 0): 4.55
Specific lactate production (Lac/VCD) ([2]; day 0): 0.00
Total Cell Density TCD ([2]; day 0): 1.07 E5/ml
Viabil. ([2]; day 0): 96%
Viable Cell Density (VCD) ([2]; day 0): 1.03 E5/ml
Gln ([2]; day 3): 1.02 mM
Glucose ([2]; day 3): 4.55 g/L
Lactate ([2]; day 3): 0.38 g/L
NH4 ([2]; day 3): 1.72 mM
Specific Glutamin consumption (Gln/VCD) ([2]; day 3): 0.13
Specific ammonia production (NH4/VCD) ([2]; day 3): 0.22
Specific glucose consumption (Gluc/VCD) ([2]; day 3): 0.59
Specific lactate production (Lac/VCD) ([2]; day 3): 0.05
Total Cell Density TCD ([2]; day 3): 7.8 E5/ml
Viabil. ([2]; day 3): 99%
Viable Cell Density (VCD) ([2]; day 3): 7.7 E5/ml
Gln ([2]; day 6): 0.25 mM
Glucose ([2]; day 6): 2.81 g/L
Lactate ([2]; day 6): 1.32 g/L
NH4 ([2]; day 6): 1.91 mM
Specific Glutamin consumption (Gln/VCD) ([2]; day 6): 0.01
Specific ammonia production (NH4/VCD) ([2]; day 6): 0.04
Specific glucose consumption (Gluc/VCD) ([2]; day 6): 0.06
Specific lactate production (Lac/VCD) ([2]; day 6): 0.03
Total Cell Density TCD ([2]; day 6): 45 E5/ml
Viabil. ([2]; day 6): 98%
Viable Cell Density (VCD) ([2]; day 6): 44 E5/ml
Gln ([2]; day 8): 0.38 mM
Glucose ([2]; day 8): 1.79 g/L
Lactate ([2]; day 8): 1.34 g/L
NH4 ([2]; day 8): 2.23 mM
Specific Glutamin consumption (Gln/VCD) ([2]; day 8): 0.02
Specific ammonia production (NH4/VCD) ([2]; day 8): 0.10
Specific glucose consumption (Gluc/VCD) ([2]; day 8): 0.08
Specific lactate production (Lac/VCD) ([2]; day 8): 0.06
Total Cell Density TCD ([2]; day 8): 24.5 E5/ml
Viabil. ([2]; day 8): 88%
Viable Cell Density (VCD) ([2]; day 8): 21.6 E5/ml
Gln ([2]; day 11): 0.49 mM
Glucose ([2]; day 11): 0.63 g/L
Lactate ([2]; day 11): 1.93 g/L
NH4 ([2]; day 11): 3.06 mM
Specific Glutamin consumption (Gln/VCD) ([2]; day 11): 0.05
Specific ammonia production (NH4/VCD) ([2]; day 11): 0.30
Specific glucose consumption (Gluc/VCD) ([2]; day 11): 0.06
Specific lactate production (Lac/VCD) ([2]; day 11): 0.19
Total Cell Density TCD ([2]; day 11): 24.2 E5/ml
Viabil. ([2]; day 11): 43%
Viable Cell Density (VCD) ([2]; day 11): 10.3 E5/ml
